EC50, CC50 and MCC data for eleven compounds are collected here from ChEMBL document CHEMBL1148592, “Synthesis and antiviral evaluation of cyclic and acyclic 2-methyl-3-hydroxy-4-pyridinone nucleoside derivatives” (J Med Chem, 2006).

Where only a bound is given, the exact number is not on record here.

Data set [1] has as its system Human immunodeficiency virus 1. The data set is described as follows: Antiviral activity against HIV1 IIIB in CEM cells. The conditions noted are these: Human immunodeficiency virus 1, 3B, CCRF-CEM. The data set is classed as functional, organism-based.
The test system of data set [2] is Human immunodeficiency virus 2. The data set is described as follows: Antiviral activity against HIV2 ROD in CEM cells. It counts as functional, organism-based. Particulars: Human immunodeficiency virus 2, ROD, CCRF-CEM.
A further data set has as its system CCRF-CEM. The data set is described as follows: Cytotoxicity in CEM cells. It counts as functional. Particulars: Homo sapiens.
Data set [3] relates to Human alphaherpesvirus 1. The data set is described as follows: Antiviral activity against HSV1 KOS in HEL cells. It counts as functional, organism-based. Particulars: Human alphaherpesvirus 1, KOS.
Data set [4] is described as follows: Minimum toxic concentration in HEL cells. Particulars: human, read-out: MTC. It counts as toxicity, cell-based.
Data set [5] has as its system Human alphaherpesvirus 1. The data set is described as follows: Antiviral activity against HSV1 TK- in HEL cells. The conditions noted are these: Human alphaherpesvirus 1, TK-. It counts as functional, organism-based.
Another data set deals with Human alphaherpesvirus 2. The data set is described as follows: Antiviral activity against HSV2 G in HEL cells. The conditions noted are these: Human alphaherpesvirus 2, G. The data set is classed as functional, organism-based.

`Cc1cn([C@H]2C[C@H](N=[N+]=[N-])[C@@H](CO)O2)c(=O)[nH]c1=O` [ZIDOVUDINE]: the EC50 in data set [1] and in data set [2] was 0.0055 µM each time. Besides, the CC50 – broadly, the concentration at which the toxic effect on the cells reaches its halfway point – in the data set on CCRF-CEM was greater than 100 µM.
`Nc1ccn(C[C@@H](CO)OCP(=O)(O)O)c(=O)n1` [CIDOFOVIR]: the EC50 (usually the midpoint of the concentration-response curve) in the data set on Human alphaherpesvirus 1 [3] was 0.57 µM; in data set [1], greater than 10 µM; in data set [2], greater than 10 µM. Further, in data set [4], the MCC is greater than 350 µM.
With `Nc1nc2c(ncn2COCCO)c(=O)[nH]1` [ACYCLOVIR], the half-maximal effective concentration (EC50) in the data set on Human alphaherpesvirus 1 [3] was 1.12 µM; in the data set with Human alphaherpesvirus 1 [5], 86.6 µM; with Human alphaherpesvirus 2, 1.76 µM; in data set [1] it was greater than 50 µM; in data set [2], greater than 50 µM. The MCC in data set [4] was greater than 1700 µM.
Consider `Nc1nc2c(ncn2COC(CO)CO)c(=O)[nH]1` [GANCICLOVIR], for which the EC50 in the data set with Human alphaherpesvirus 2 is 0.06 µM; in data set [1] it was greater than 50 µM; in data set [2], greater than 50 µM.
For the compound `Cc1c(O)c(=O)ccn1CCOCP(=O)(O)O`, the EC50 in the data set on Human alphaherpesvirus 1 [3] is greater than 200 µM; with Human alphaherpesvirus 2, greater than 200 µM; in data set [1], greater than 50 µM; in data set [2], greater than 50 µM. In addition, the MCC in data set [4] is greater than 200 µM. Moreover, the CC50 in the data set with CCRF-CEM is greater than 50 µM.
On to `Cc1c(O)c(=O)ccn1[C@H]1CC[C@@H](CO)O1`, for which the EC50 in the data set with Human alphaherpesvirus 1 [3] was 40 µM; in the data set with Human alphaherpesvirus 1 [5], 500 µM; in the data set on Human alphaherpesvirus 2, greater than 900 µM; in data set [1], greater than 50 µM; in data set [2], greater than 50 µM. Further, the MCC in data set [4] was greater than 900 µM. Further, in the data set on CCRF-CEM, the CC50 is greater than 50 µM.
For `Cc1c(O)c(=O)ccn1[C@H]1CC[C@H](CO)O1`, the EC50 in the data set with Human alphaherpesvirus 1 [3] is 177 µM; in the data set on Human alphaherpesvirus 1 [5], greater than 177 µM; in the data set with Human alphaherpesvirus 2 it was greater than 177 µM; in data set [1] it was greater than 90 µM; in data set [2], greater than 90 µM. In addition, in data set [4], the MCC is greater than 900 µM. The compound also returned a CC50 with CCRF-CEM of 84 µM.
As to `Cc1c(OCc2ccccc2)c(=O)ccn1[C@H]1CC[C@@H](CO)O1`, the EC50 was greater than 200 µM in the data set with Human alphaherpesvirus 1 [3]; greater than 200 µM with Human alphaherpesvirus 1 [5]; greater than 200 µM in the data set with Human alphaherpesvirus 2; greater than 150 µM in data set [1]; greater than 150 µM in data set [2]. In addition, the MCC in data set [4] is greater than 900 µM. For the same compound, the CC50 in the data set with CCRF-CEM was greater than 150 µM.
For the compound `Cc1c(O)c(=O)ccn1[C@H]1CS[C@@H](CO)O1` (racemic), the EC50 was 32 µM with Human alphaherpesvirus 1 [3]; 80 µM in the data set on Human alphaherpesvirus 1 [5]; 81 µM in the data set on Human alphaherpesvirus 2; greater than 80 µM in data set [1]; greater than 80 µM in data set [2]. For the same compound, the MCC in data set [4] is greater than 400 µM. For the same compound, in the data set on CCRF-CEM, the CC50 came to 188 µM.
As for `Cc1c(O)c(=O)ccn1[C@@H]1CS[C@@H](CO)O1` (racemic), the EC50 with Human alphaherpesvirus 1 [3] is 40 µM; with Human alphaherpesvirus 1 [5], 95 µM; in the data set with Human alphaherpesvirus 2, 90 µM; in data set [1], greater than 80 µM; in data set [2] it was greater than 80 µM. For the same compound, the MCC in data set [4] is greater than 400 µM. Also, the midpoint of cytotoxicity with CCRF-CEM, the CC50, lay at 188 µM.
In the case of `Cc1c(O)c(=O)ccn1[C@@H]1CC[C@@H](CO)O1`, the EC50 in the data set with Human alphaherpesvirus 1 [3] is 177 µM; in the data set with Human alphaherpesvirus 1 [5], greater than 177 µM; in the data set with Human alphaherpesvirus 2, greater than 177 µM; in data set [1] it was greater than 50 µM; in data set [2], greater than 50 µM. Moreover, in data set [4], the MCC was greater than 900 µM. In the data set on CCRF-CEM, the CC50 turned out to be 101 µM.
